{
  "source": "patent US20180110754A1",
  "about": "“CENICRIVIROC FOR THE TREATMENT OF FIBROSIS” (Tobira Therapeutics, Inc., priority 2015, published 2018)",
  "key": {"CCR2": {"target": "T1, CCR2 (Homo sapiens, UniProt P41597)", "T1 construct": "endogenous in cells; host or cells: monocytes within PBMCs from HIV+ and HIV- subjects", "T1 sequence (P41597 1-360 isoform P41597-2)": "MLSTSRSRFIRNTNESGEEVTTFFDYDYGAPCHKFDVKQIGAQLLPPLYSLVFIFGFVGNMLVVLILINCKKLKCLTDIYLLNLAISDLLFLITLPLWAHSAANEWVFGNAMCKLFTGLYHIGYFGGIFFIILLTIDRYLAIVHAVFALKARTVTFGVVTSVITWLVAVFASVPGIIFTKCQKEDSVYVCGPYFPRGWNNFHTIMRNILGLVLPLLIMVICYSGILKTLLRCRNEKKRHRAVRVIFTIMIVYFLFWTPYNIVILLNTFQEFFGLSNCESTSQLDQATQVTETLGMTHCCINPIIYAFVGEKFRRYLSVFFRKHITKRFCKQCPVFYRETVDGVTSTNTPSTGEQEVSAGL", "assay": "MCP-1-induced CCR2 internalization / CCR2 receptor occupancy on monocytes (flow cytometry)", "format": "cell-based", "protocol": "(§1) The capacity of each drug to inhibit CCR5 or CCR2 internalization was evaluated. Cell-surface expression of CCR5 and CCR2 was assessed by flow cytometry, and fluorescence values were converted into molecules of equivalent soluble fluorescence (MESF)."}, "[1]": {"system": "thioglycollate-induced peritonitis (monocyte/macrophage and leukocyte recruitment)", "assay": "Mouse thioglycollate-induced peritonitis model: peritoneal lavage cell counts, body weight", "format": "in vivo", "protocol": "Summary: The mouse thioglycollate induced peritonitis model is a commonly used preclinical model to assess the recruitment of […] cells and to assess the activation of macrophages.\nDexamethasone was used as a positive control in this experiment as it is a corticosteroid known to reduce inflammation in a variety of animal models. Murine inflammation models indicate that the effective dose range for dexamethasone, when administered orally, is 0.3 to 3 mg/kg QD. On this basis, an intermediate dose of 1 mg/kg was chosen for this particular study.\nThe lavage was repeated with a second injection of 2.5 mL via the initial puncture site and the samples were pooled for each animal.\nThe lavage fluid was placed on wet ice pending processing for total and differential cell counts using the Advia analyzer. Following the lavage collection, a blood sample (0.7 mL) was collected from each mouse by intracardiac puncture or from the vena cava (collection time was recorded). 0.5 mL of blood was placed in an EDTA tube, transferred to clinical pathology and analyzed for differential cell counts using the Advia analyzer. 0.2 mL of blood was placed in a K2EDTA tube and processed to plasma. The plasma was collected by centrifugation (3000 rpm for 10 minutes at 4° C.) and placed on dry ice. […] After blood collection, the animals were then exsanguinated by sectioning of the abdominal aorta.\nStatistical Analysis: One-way ANOVA with post-hoc Dunnett's statistical analysis was performed on differential cell counts obtained from lavage and blood samples. The analysis was performed in comparison to Group 2."}, "CCR5 [2]": {"target": "T2, CCR5 (Homo sapiens, UniProt P51681)", "T2 sequence (P51681 whole entry)": "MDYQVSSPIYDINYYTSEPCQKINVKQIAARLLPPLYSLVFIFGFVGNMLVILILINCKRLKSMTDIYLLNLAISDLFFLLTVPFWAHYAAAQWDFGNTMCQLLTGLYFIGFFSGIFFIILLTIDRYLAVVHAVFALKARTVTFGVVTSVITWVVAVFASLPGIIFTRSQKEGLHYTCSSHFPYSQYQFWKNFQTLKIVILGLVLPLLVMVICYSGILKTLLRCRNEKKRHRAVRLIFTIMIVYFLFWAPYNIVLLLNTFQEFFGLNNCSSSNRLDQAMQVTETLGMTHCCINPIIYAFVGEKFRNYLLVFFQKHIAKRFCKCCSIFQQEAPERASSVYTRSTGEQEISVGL", "assay": "Inhibition of chemokine binding to CCR5-expressing CHO cells"}, "[3]": {"assay": "Solubility of cenicriviroc mesylate in solvents and aqueous solution", "format": "physicochemical", "from_the_text": "In one embodiment, the acid addition salt of cenicriviroc is cenicriviroc mesylate, e.g., (5)-8-[4-(2-Butoxyethoxy)phenyl]-1-isobutyl-N-(4-{[(1-propyl-1H-imidazol-5-yl)methyl]sulfinyl}phenyl)-1,2,3,4-tetrahydro-1-benzazocine-5-carboxamide monomethanesulfonoate. In one embodiment, the cenicriviroc mesylate is a crystalline material, such as a pale greenish-yellow crystalline powder."}, "CCR5 [4]": {"target": "T2, CCR5", "assay": "RANTES-induced CCR5 internalization / CCR5 receptor occupancy in PBMCs (flow cytometry)", "format": "cell-based", "protocol": "as §1"}, "HIV-1 BaL [5]": {"system": "HIV-1 BaL", "assay": "Extracellular virus (viral RNA, p24) in culture fluids of PM-1 cells exposed to HIV-1 BaL", "format": "cell-based", "conditions": "4 hrs post-infection, CVC 20 nM, MVC 50 nM", "from_the_text": "Cells. PM-1 cells that express CD4, CCR5, and CXCR4 were maintained in RPMI-1640 medium containing 10% fetal bovine serum (R10 medium) at 37C, 5% CO2. 293T cells used for transfection were maintained in DMEM at 10% FBS, L-glutamine, and antibiotics (D10 medium) at 37C, 5% CO2. Virus Stocks. HIV-1 BaL virus was produced by transfecting 293T cells with the plasmid pWT/BaL. Lipofectamine 2000 was used as a transfection agent. Culture supernatants were collected at 48 hrs post-transfection, filtered through a 0.45 μm pore filter, and treated with 50 units of benzonase per ml of virus stock for 20 minutes at 37C to remove contaminating plasmid DNA. Virus stocks were frozen at −80C to halt benzonase activity. Benzonase-treated virus stocks were propagated in cord blood mononuclear cells (CBMCs). CBMCs were stimulated for 72 h with phytohemagluttinin (PHA-M) in R10 medium prior to infection with HIV-1 BaL. The viral amplification culture was subsequently grown in R10 supplemented with interleukin 2 (IL-2) and incubated at 37C, 5% CO2.\nBoth drugs were incubated with PM-1 cells for 1 hr at 37 C prior to the addition of virus. 500 ng of p24 antigen of HIV-1 BaL were incubated per 5×10^5 cells in 1 ml of R10 media. Virus only controls, described as “no cell” in the text, were used to measure viral decay. Viral adsorption was measured in the no-drug controls, whereby 500 ng of p24 Ag of HIV-1 Bal were added per 5×10^5 PM-1 cells that were pre-incubated at 37 C for 1 hr in the absence of drug treatment. Each drug treatment and control was performed in duplicate. Viral RNA was extracted from 140 μl of supernatant fluid using the QIAamp Viral RNA mini kit according to manufacturer's instructions. Samples were stored at −80 C until analysis. Supernatant viral loads were measured using quantitative real-time reverse transcription PCR (qRT-PCR) with the primers US1SSF (5′-[…]-3′), US1SSR (5′-[…]-3′) and US1SS probe (5′-(FAM) […]) and the Invitrogen qRT-PCR Supermix Kit. Cycling parameters were: 50° C. for 15 minutes, 95° C. for 10 minutes, followed by 50 cycles of 95° C. for 15 seconds, and 60° C. for 1 minute. All values are the result of replicate testing over 2 independent experiments. RNA copy number was quantified by use of 10-fold serial dilutions of pBaL/wt to generate standard curves for each assay and calibrated against samples with known copy numbers from previous studies."}, "HIV-1 BaL [6]": {"system": "HIV-1 BaL", "assay": "Intracellular strong-stop HIV DNA in PM-1 cells infected with HIV-1 BaL", "format": "cell-based", "conditions": "4 hrs, CVC 20 nM, MVC 50 nM", "protocol": "Both drugs were incubated with PM-1 cells for 1 hr at 37 C prior to the addition of virus. 500 ng of p24 antigen of HIV-1 BaL were incubated per 5×10^5 cells in 1 ml of R10 media. Virus only controls, described as “no cell” in the text, were used to measure viral decay. Viral adsorption was measured in the no-drug controls, whereby 500 ng of p24 Ag of HIV-1 Bal were added per 5×10^5 PM-1 cells that were pre-incubated at 37 C for 1 hr in the absence of drug treatment. Each drug treatment and control was performed in duplicate. Viral RNA was extracted from 140 μl of supernatant fluid using the QIAamp Viral RNA mini kit according to manufacturer's instructions. Samples were stored at −80 C until analysis. Supernatant viral loads were measured using quantitative real-time reverse transcription PCR (qRT-PCR) with the primers US1SSF (5′-[…]-3′), US1SSR (5′-[…]-3′) and US1SS probe (5′-(FAM) […]) and the Invitrogen qRT-PCR Supermix Kit. […] RNA copy number was quantified by use of 10-fold serial dilutions of pBaL/wt to generate standard curves for each assay and calibrated against samples with known copy numbers from previous studies.\nIntracellular DNA qPCR. Total DNA was extracted, quantified, and stored at −80 C. Intracellular strong-stop DNA levels were quantified with the US1SS primer/probe set described above. […]"}},
  "data": [
    {"compound": "CSc1ccc(C(=O)N[C@@H]2CCCC[C@@H]2NC(=O)CNC(=O)c2cc(C(F)(F)F)ccc2NC(=O)NC(C)C)cc1", "note": "[BMS-22, reference compound]", "values": [
      {"measurement": "Concentration required to reach >80% CCR2 receptor occupancy (average)", "setting": "CCR2", "value": 18, "unit": "nM"},
      {"measurement": "CCR2 cell-surface expression", "setting": "CCR2; in the absence of MCP-1", "value": "slightly increased CCR2 cell-surface expression"}
    ]},
    {"compound": "C[C@@H]1C[C@H]2[C@@H]3CCC4=CC(=O)C=C[C@]4(C)[C@@]3(F)[C@@H](O)C[C@]2(C)[C@@]1(O)C(=O)CO", "note": "[Dexamethasone, dexamethasone, reference compound]", "values": [
      {"measurement": "Decrease in monocytes in peritoneal lavage vs thioglycollate control", "setting": "[1]; Group 7, 1 mg/kg oral", "value": 38.1, "unit": "%"},
      {"measurement": "Decrease in total leukocyte counts in peritoneal lavage vs thioglycollate control", "setting": "[1]; Group 7, 1 mg/kg oral", "value": 26.6, "unit": "%"},
      {"measurement": "Body weights, Days 1 to 6", "setting": "[1]; mouse, in vivo", "value": "decreased slightly"}
    ]},
    {"compound": "CCCCOCCOc1ccc(-c2ccc3c(c2)C=C(C(=O)Nc2ccc(SC)cc2)CCCN3CC(C)C)cc1", "note": "[M-II]", "values": [
      {"measurement": "IC50, inhibition of RANTES binding to CCR5-expressing cells", "setting": "CCR5 [2]; CHO cells", "value": "no effect on binding of RANTES"}
    ]},
    {"compound": "CCCCOCCOc1ccc(-c2ccc3c(c2)C=C(C(=O)Nc2ccc(S(=O)(=O)Cc4cncn4CCC)cc2)CCCN3CC(C)C)cc1", "note": "[M-I]", "values": [
      {"measurement": "IC50 relative to the IC50 of CVC (RANTES binding to CCR5)", "setting": "CCR5 [2]", "value": "approximately 2 fold"},
      {"measurement": "IC50", "setting": "CCR5 [2]; CHO cells, read-out: IC50, inhibition of RANTES binding to CCR5-expressing cells", "value": 6.5, "unit": "nM"}
    ]},
    {"compound": "(5)-8-[4-(2-Butoxyethoxy)phenyl]-1-isobutyl-N-(4-{[(1-propyl-1H-imidazol-5-yl)methyl]sulfinyl}phenyl)-1,2,3,4-tetrahydro-1-benzazocine-5-carboxamide monomethanesulfonoate [cenicriviroc mesylate]", "values": [
      {"measurement": "Solubility", "setting": "[3]; 99.5% ethanol", "value": "sparingly soluble"},
      {"measurement": "Solubility", "setting": "[3]; acetonitrile, 1-octanol, tetrahydrofuran", "value": "slightly soluble"},
      {"measurement": "Solubility", "setting": "[3]; ethyl acetate and diethylether", "value": "practically insoluble"},
      {"measurement": "Solubility", "setting": "[3]; glacial acetic acid, methanol, benzyl alcohol, dimethylsulfoxide, N,N-dimethylformamide", "value": "freely soluble"},
      {"measurement": "Solubility in aqueous solution", "setting": "[3]; pH 1 to 2", "value": "freely soluble"},
      {"measurement": "Solubility in aqueous solution", "setting": "[3]; pH 3", "value": "sparingly soluble"},
      {"measurement": "Solubility in aqueous solution", "setting": "[3]; pH 4 to 13 and in water", "value": "practically insoluble"},
      {"measurement": "Solubility", "setting": "[3]; pyridine and acetic anhydride", "value": "soluble"}
    ]},
    {"compound": "Maraviroc [MVC, reference compound]", "values": [
      {"measurement": "CCR5 receptor occupancy at saturation", "setting": "CCR5 [4]; CD4+ T cells", "value": "~86", "unit": "%"},
      {"measurement": "Effective concentration at which saturation of CCR5 was reached", "setting": "CCR5 [4]; CD4+ T cells", "value": 12.5, "unit": "nM"},
      {"measurement": "CCR5 receptor occupancy at saturation", "setting": "CCR5 [4]; CD8+ T cells", "value": "~87", "unit": "%"},
      {"measurement": "Effective concentration at which saturation of CCR5 was reached", "setting": "CCR5 [4]; CD8+ T cells", "value": 12.5, "unit": "nM"},
      {"measurement": "Cell-surface expression of CCR5", "setting": "CCR5 [4]; in the absence of RANTES", "value": "increased cell-surface expression of CCR5"},
      {"measurement": "p24 antigen level in culture fluids", "setting": "HIV-1 BaL [5]; baseline 506 ng/ml", "value": 520, "unit": "ng/mL"},
      {"measurement": "Viral RNA in culture fluids", "setting": "HIV-1 BaL [5]; baseline 1.19×10^10", "value": "1.67×10^10 copies/ml"},
      {"measurement": "Relative intracellular strong-stop HIV DNA level compared to no drug control", "setting": "HIV-1 BaL [6]", "value": 0.02}
    ]}
  ]
}
